From patent US11234979B2, “Heteroaryl compounds as muscarinic M1 receptor positive allosteric modulators” (SUVEN LIFE SCIENCES LIMITED, priority 2017, dated 2022) come the findings set out here.

Data set [1] is described as follows: Rodent brain penetration study. The data set is classed as in vivo, Male Wistar rats. To be noted: male, Wistar, brain and plasma, po; rat, 3 mg/kg, p.o. @ 1.0 hr, brain-plasma ratio; read-out: Single dose Rat Brain Penetration (Cb/Cp). On the procedure:
Rodent Brain Penetration Study
Male Wistar rats (260±40 grams) were used as experimental animals. Three animals were housed in each cage. Animals were given water and food ad libitum throughout the experiment and maintained on a 12 hours light/dark cycle.
Brain penetration was determined in discrete manner in rats. One day prior to dosing day, male Wistar rats were acclimatized and randomly grouped according to their weight. At each time point (0.5, 1 and 2 hours) n=3 animals were used.
The test compounds were suitably preformulated and administered orally at (free base equivalent) 3 mg/kg. Blood samples were removed via cardiac puncture by using isoflurane anesthesia. The animals were sacrificed to collect brain tissue. Plasma was separated and brain samples were homogenized and stored frozen at −20° C. until analysis. The concentrations of the test compounds in plasma and brain were determined using LC-MS/MS method.
The test compounds were quantified in plasma and brain homogenate by qualified LC-MS/MS method using suitable extraction technique. The test compounds were quantified in the calibration range of 1-500 ng/mL in plasma and brain homogenate. Study samples were analyzed using calibration samples in the batch and quality control samples spread across the batch.

Data set [2] concerns the target T1, recombinant human Muscarinic M1 receptor (Homo sapiens, UniProt P11229).
T1 construct: expressed in transfected cells
T1 sequence (P11229 1-460): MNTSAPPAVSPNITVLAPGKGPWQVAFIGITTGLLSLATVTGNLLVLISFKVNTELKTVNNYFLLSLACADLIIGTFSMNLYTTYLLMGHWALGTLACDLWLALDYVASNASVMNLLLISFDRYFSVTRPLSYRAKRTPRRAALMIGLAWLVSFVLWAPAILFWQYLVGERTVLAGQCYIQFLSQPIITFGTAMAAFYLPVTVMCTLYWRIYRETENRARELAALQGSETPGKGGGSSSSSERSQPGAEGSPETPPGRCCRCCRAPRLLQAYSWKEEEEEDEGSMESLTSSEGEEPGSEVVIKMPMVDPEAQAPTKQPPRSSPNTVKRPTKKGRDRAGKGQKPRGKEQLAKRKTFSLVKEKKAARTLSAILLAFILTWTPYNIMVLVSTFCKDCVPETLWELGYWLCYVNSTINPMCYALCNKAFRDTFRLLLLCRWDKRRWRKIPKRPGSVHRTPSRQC
As to the kind of experiment: Allosteric potency EC50 for Muscarinic M1 receptor, CHO pCRE-Luc reporter assay with EC20 of acetylcholine. Type of data set: cell-based. To be noted: CHO cells, in presence of EC20 of acetylcholine, 4 hours. In outline:
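Stable CHO line expressing human M1 receptor with CRE-driven luciferase, serum-starved overnight, then exposed to increasing compound concentrations plus an EC20 of acetylcholine in OptiMEM for 4 hours at 37° C. Luciferase read after lysis, normalized to maximal acetylcholine response; EC50 is concentration giving 50% stimulation.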
For orientation: A reporter such as luciferase makes a cellular process visible.

As a reminder, the EC50 is the concentration needed to bring the measured effect to its halfway point. For the molecule `Cn1cc(-c2ccc(Cc3cc(C(=O)N[C@H]4CCCC[C@@H]4O)n4ncccc34)cc2)cn1` [Example 32, N-(cis-1S,2S-2-Hydroxycyclohexyl)-5-[4-(1-methyl-1H-pyrazol-4-yl)-benzyl]-pyrrolo [1,2-b]pyridazine-7-carboxamide], in data set [1], the Kp at 1 h stood at 0.15 ± 0.02. In data set [2], the EC50 came out at 66 nM.
